Measured values reported in PubChem BioAssay (NCI).
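GI50 = concentration required for 50% inhibition of growth. TGI marks complete inhibition of growth.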

Assays:
Assay in all cases: inhibition of tumour cell growth, NCI panel, 384-well format
786-0 renal = system: 786-0 renal
A498 renal = system: A498 renal
A549 NSCLC = system: A549 NSCLC
ACHN renal = system: ACHN renal
BT-549 breast = system: BT-549 breast
CAKI-1 renal = system: CAKI-1 renal
CCRF-CEM leukemia = system: CCRF-CEM leukemia
DU-145 prostate = system: DU-145 prostate
EKVX NSCLC = system: EKVX NSCLC
HCT-116 colon = system: HCT-116 colon
HCT-15 colon = system: HCT-15 colon
HL-60(TB) leukemia = system: HL-60(TB) leukemia
HOP-62 NSCLC = system: HOP-62 NSCLC
HOP-92 NSCLC = system: HOP-92 NSCLC
HS 578T breast = system: HS 578T breast
HT29 colon = system: HT29 colon
IGROV1 ovarian = system: IGROV1 ovarian
K-562 leukemia = system: K-562 leukemia
KM12 colon = system: KM12 colon
LOX IMVI melanoma = system: LOX IMVI melanoma
M14 melanoma = system: M14 melanoma
MALME-3M melanoma = system: MALME-3M melanoma
MCF7 breast = system: MCF7 breast
MDA-MB-231 breast = system: MDA-MB-231 breast
MDA-MB-435 melanoma = system: MDA-MB-435 melanoma
MDA-MB-468 breast = system: MDA-MB-468 breast
MOLT-4 leukemia = system: MOLT-4 leukemia
NCI-H226 lung = system: NCI-H226 lung
NCI-H23 lung = system: NCI-H23 lung
NCI-H322M lung = system: NCI-H322M lung
NCI-H522 lung = system: NCI-H522 lung
NCI/ADR-RES ovarian = system: NCI/ADR-RES ovarian
OVCAR-3 ovarian = system: OVCAR-3 ovarian
OVCAR-4 ovarian = system: OVCAR-4 ovarian
OVCAR-5 ovarian = system: OVCAR-5 ovarian
OVCAR-8 ovarian = system: OVCAR-8 ovarian
PC-3 prostate = system: PC-3 prostate
RPMI-8226 leukemia = system: RPMI-8226 leukemia
RXF 393 renal = system: RXF 393 renal
SF-268 CNS = system: SF-268 CNS
SF-295 CNS = system: SF-295 CNS
SF-539 CNS = system: SF-539 CNS
SK-MEL-2 melanoma = system: SK-MEL-2 melanoma
SK-MEL-28 melanoma = system: SK-MEL-28 melanoma
SK-OV-3 ovarian = system: SK-OV-3 ovarian
SN12C renal = system: SN12C renal
SNB-19 CNS = system: SNB-19 CNS
SNB-75 CNS = system: SNB-75 CNS
SW-620 colon = system: SW-620 colon
T-47D breast = system: T-47D breast
TK-10 renal = system: TK-10 renal
U251 glioblastoma = system: U251 glioblastoma
UACC-257 melanoma = system: UACC-257 melanoma
UACC-62 melanoma = system: UACC-62 melanoma
UO-31 renal = system: UO-31 renal

Compound: OCC1OC(n2cnc3c2NC=NC[C@H]3O)CC1O (stereo not given in full)
- GI50 ([…]-0 renal): > 100 µM
- TGI (786-0 renal): > 100 µM
- GI50 (A498 renal): > 100 µM
- TGI (A498 renal): > 100 µM
- GI50 (A549 NSCLC): > 100 µM
- TGI (A549 NSCLC): > 100 µM
- GI50 (ACHN renal): > 100 µM
- TGI (ACHN renal): > 100 µM
- GI50 (BT-549 breast): > 100 µM
- TGI (BT-549 breast): > 100 µM
- GI50 (CAKI-1 renal): > 100 µM
- TGI (CAKI-1 renal): > 100 µM
- GI50 (CCRF-CEM leukemia): > 100 µM
- TGI (CCRF-CEM leukemia): > 100 µM
- GI50 (DU-145 prostate): > 100 µM
- TGI (DU-145 prostate): > 100 µM
- GI50 (EKVX NSCLC): > 100 µM
- TGI (EKVX NSCLC): > 100 µM
- GI50 (HCT-116 colon): > 100 µM
- TGI (HCT-116 colon): > 100 µM
- GI50 (HCT-15 colon): > 100 µM
- TGI (HCT-15 colon): > 100 µM
- GI50 (HL-60(TB) leukemia): > 100 µM
- TGI (HL-60(TB) leukemia): > 100 µM
- GI50 (HOP-62 NSCLC): > 100 µM
- TGI (HOP-62 NSCLC): > 100 µM
- GI50 (HOP-92 NSCLC): > 100 µM
- TGI (HOP-92 NSCLC): > 100 µM
- GI50 (HS 578T breast): > 100 µM
- TGI (HS 578T breast): > 100 µM
- GI50 (HT29 colon): > 100 µM
- TGI (HT29 colon): > 100 µM
- GI50 (IGROV1 ovarian): > 100 µM
- TGI (IGROV1 ovarian): > 100 µM
- GI50 (K-562 leukemia): > 100 µM
- TGI (K-562 leukemia): > 100 µM
- GI50 (KM12 colon): > 100 µM
- TGI (KM12 colon): > 100 µM
- GI50 (LOX IMVI melanoma): > 100 µM
- TGI (LOX IMVI melanoma): > 100 µM
- GI50 (M14 melanoma): > 100 µM
- TGI (M14 melanoma): > 100 µM
- GI50 (MALME-3M melanoma): > 100 µM
- TGI (MALME-3M melanoma): > 100 µM
- GI50 (MCF7 breast): > 100 µM
- TGI (MCF7 breast): > 100 µM
- GI50 (MDA-MB-231 breast): > 100 µM
- TGI (MDA-MB-231 breast): > 100 µM
- GI50 (MDA-MB-435 melanoma): > 100 µM
- TGI (MDA-MB-435 melanoma): > 100 µM
- GI50 (MDA-MB-468 breast): > 100 µM
- TGI (MDA-MB-468 breast): > 100 µM
- GI50 (MOLT-4 leukemia): > 100 µM
- TGI (MOLT-4 leukemia): > 100 µM
- GI50 (NCI-H226 lung): > 100 µM
- TGI (NCI-H226 lung): > 100 µM
- GI50 (NCI-H23 lung): > 100 µM
- TGI (NCI-H23 lung): > 100 µM
- GI50 (NCI-H322M lung): > 100 µM
- TGI (NCI-H322M lung): > 100 µM
- GI50 (NCI-H522 lung): > 100 µM
- TGI (NCI-H522 lung): > 100 µM
- GI50 (NCI/ADR-RES ovarian): > 100 µM
- TGI (NCI/ADR-RES ovarian): > 100 µM
- GI50 (OVCAR-3 ovarian): > 100 µM
- TGI (OVCAR-3 ovarian): > 100 µM
- GI50 (OVCAR-4 ovarian): > 100 µM
- TGI (OVCAR-4 ovarian): > 100 µM
- GI50 (OVCAR-5 ovarian): > 100 µM
- TGI (OVCAR-5 ovarian): > 100 µM
- GI50 (OVCAR-8 ovarian): > 100 µM
- TGI (OVCAR-8 ovarian): > 100 µM
- GI50 (PC-3 prostate): > 100 µM
- TGI (PC-3 prostate): > 100 µM
- GI50 (RPMI-8226 leukemia): > 100 µM
- TGI (RPMI-8226 leukemia): > 100 µM
- GI50 (RXF 393 renal): > 100 µM
- TGI (RXF 393 renal): > 100 µM
- GI50 (SF-268 CNS): > 100 µM
- TGI (SF-268 CNS): > 100 µM
- GI50 (SF-295 CNS): > 100 µM
- TGI (SF-295 CNS): > 100 µM
- GI50 (SF-539 CNS): > 100 µM
- TGI (SF-539 CNS): > 100 µM
- GI50 (SK-MEL-2 melanoma): > 100 µM
- TGI (SK-MEL-2 melanoma): > 100 µM
- GI50 (SK-MEL-28 melanoma): > 100 µM
- TGI (SK-MEL-28 melanoma): > 100 µM
- GI50 (SK-OV-3 ovarian): > 100 µM
- TGI (SK-OV-3 ovarian): > 100 µM
- GI50 (SN12C renal): > 100 µM
- TGI (SN12C renal): > 100 µM
- GI50 (SNB-19 CNS): > 100 µM
- TGI (SNB-19 CNS): > 100 µM
- GI50 (SNB-75 CNS): > 100 µM
- TGI (SNB-75 CNS): > 100 µM
- GI50 (SW-620 colon): > 100 µM
- TGI (SW-620 colon): > 100 µM
- GI50 (T-47D breast): > 100 µM
- TGI (T-47D breast): > 100 µM
- GI50 (TK-10 renal): > 100 µM
- TGI (TK-10 renal): > 100 µM
- GI50 (U251 glioblastoma): > 100 µM
- TGI (U251 glioblastoma): > 100 µM
- GI50 (UACC-257 melanoma): > 100 µM
- TGI (UACC-257 melanoma): > 100 µM
- GI50 (UACC-62 melanoma): > 100 µM
- TGI (UACC-62 melanoma): > 100 µM
- GI50 (UO-31 renal): > 100 µM
- TGI (UO-31 renal): > 100 µM
